US20250152731A1, “ANTI-TROP2 ANTIBODY COMBINATION THERAPIES AND METHODS OF USE THEREOF” (priority 2021, published 2025)

Columns and labels:
BCX-010 cells = assay: Colony formation assay, BCX-010 control and Zeb1 knockdown; format: cell-based, human; details: BCX-010 control and Zeb1 knockdown cells; decitabine 5 nM, sacituzumab govitecan 20 nM, 14 days
Procedure: FIGS. 7A-7B show a colony assay of BCX-010 cells transfected with control shRNA (FIG. 7A) or Zeb1 shRNA (FIG. 7B) after treatment with vehicle, sacituzumab govitecan (20 nM), and/or decitabine (5 nM) for 14 days. After 14 days, cell colonies formed on the plates, were fixed with 10% formalin, and stained with 0.05% crystal violet. […] Annexin V positive apoptotic cells were measured by flow cytometry. Percentage of apoptotic cells over total cell populations was calculated.
In order to determine the effect of decitabine and/or Zeb1 knockdown treatment on sacituzumab govitecan activity, colony formation assays were performed in BCX-010 breast cancer cells. BCX-010 cells (control and Zeb1 knockdown) were seeded into 6-well plates at 1000 cells/well. Cells were treated with decitabine (5 nM) and/or sacituzumab govitecan ([…]) for 14 days. Culture medium with replaced with culture medium containing fresh drugs twice. After 14 days, cell colonies form on the plates were fixed with 10% formalin and stained with 0.05% crystal violet. Total colony area and colony number were quantified using ImageJ software.

[1] = tested on: BCX-010CL and BCX-011CL cells; assay: Cell survival assay of SG in TROP2-overexpressing cells; format: cell-based, human; details: serial dilutions, 3 days, FIG. 8B
Procedure: TROP2-overexpressing cells and control cells were treated with SG at concentrations in serial dilutions for 3 days. SG IC50 was calculated.
For TROP2 overexpression, breast cancer cells seeded in 6-well plates were transfected with TROP2 expression plasmid pCMV6-entry-TROP2 using Lipofectamine 3000 Kit. Two days after transfection, cells were treated with G-418 for 2-3 passages.
After G-418 selection, immunoblotting was performed to detect TROP2 expression (FIG. 8A). Next, TROP2-overexpressing cells and control cells were treated with SG at concentrations in serial dilutions for 3 days. SG IC50 was calculated (FIG. 8B).

Sum-159 cells = assay: Colony formation assay, Sum-159; format: cell-based, human; details: sacituzumab govitecan 200 nM, decitabine 200 nM
Procedure: FIGS. 6A-6E show a colony assay of BCX-010 (FIGS. 6A-6B), BCX-011 (FIG. 6C-6D), and Sum-159 cells ([…]) after treatment with vehicle, sacituzumab govitecan (200 nM), and/or decitabine (200 nM) for 10 days. FIGS. 6A-6C show agar plates after 10 days of colony formation.
In order to determine the effect of decitabine treatment on sacituzumab govitecan activity, colony formation assays were performed in BCX-010 cells (FIGS. 6A-6B), BCX-011 cells (FIG. 6C-6D), and Sum-159 breast cancer cells (FIG. 6E-6F).
Cells were seeded in 6-well plates at a density of 1000 cells per well in triplicates for each treatment group. Next day, cells were treated with single drugs, or combination at the different concentrations. Culture medium was changed with fresh drugs twice a week. Cells were cultured for 3 weeks. Cell colonies were then fixed in 10% formalin and stained with 0.05% crystal violet in 25% methanol. The stained colonies were imaged and total colony area was quantitated using NIH ImageJ v.1.48 software. Effect-based Combination Index (CI) was calculated by inhibition percentage of single drug and combination treatments using Bliss combination model. CI=((EA+EB)−(EA*EB))/EAB, where EA, EB, and EAB are effects of drug A, B and combination AB inhibition percentage. Here the effect is inhibition percentage of colony formation compared to vehicle controls. […]

[2] = tested on: BCX-010, BCX-011 and Sum-159 cells; assay: Annexin V flow cytometry apoptosis assay; format: cell-based, human; details: decitabine 1 μM and/or sacituzumab govitecan 0.1 μM, three days; FIGS. 5A-5D
Procedure: In order to determine the effect of decitabine and/or Zeb1 knockdown treatment on sacituzumab govitecan activity, apoptosis was measured in breast cancer cell lines. BCX-010 cells (FIG. 5A and FIG. 5B), BCX-011 cells (FIG. 5C) and Sum-159 cells (FIG. 5D) were seeded in 6-cm plates, then treated with decitabine (1 μM) and/or sacituzumab govitecan (0.1 μM) for three days in an apoptosis assay. After the three day treatment, cells were stained with Annexin V. Flow cytometry was performed to sort Annexin V positive cells (apoptotic cells) (FIGS. 5A-5D). Percentage of apoptotic cells was calculated by Annexin V positive cells over total cell populations.
Cells were seeded in 6 cm plates at a density of 3×10^5 cells per well in triplicates for each treatment group. The following day, cells were treated with decitabine and SG at 1 μM and 0.1 μM respectively, or their combination. […] Using Annexin-V-FLUOS Staining Kit (Roche), cells were stained with Annexin V fluorescence and propidium iodide (PI), following manufacturer's protocol. Samples were analyzed by flow cytometry. Percentage of Annexin V positive apoptotic cells were calculated.
In apoptosis assay, cells were treated with decitabine at 1 μM, SG at 0.1 μM, or their combination for 3 days. Annexin V positive apoptotic cells were measured by flow cytometry. Percentage of apoptotic cells over total cell populations was calculated (FIG. 7D).

[3] = tested on: DNMT1, DNMT3A, and DNMT3B; assay: Immunoblotting of DNA methyltransferases (DNMTs); format: cell-based, human; details: breast cancer cell lines
Procedure: (§1) Following treatments, cells were washed with cold PBS and lysed in 1× Laemmli buffer. The protein concentrations in the cell lysates were measured using Pierce BCA protein assay Kit (ThermoFisher). The same amount protein for each sample (20-50 μg/lane) was loaded to SDS-PAGE gel, followed by transferring proteins to a 0.2 μm nitrocellulose membrane (Bio-Rad Laboratories). Membranes were blocked with blocking buffer Blocker Casein in PBS (ThermoFisher) at room temperature for 1 hour, followed by immunoblotting with the primary antibodies in 5% BSA TBST buffer at room temperature overnight. After washing with TBST buffer, the immunoblotting membrane was then probed with the secondary antibodies with fluorescence conjugation. The immunoblots were visualized and the immunoblotting signal intensity quantitated using the Odyssey IR imaging system (Li-Cor Biosciences).

TROP2 = assay: Immunoblotting of TROP2 protein in breast cancer cell lines; format: cell-based, human; details: breast cancer cell lines
Procedure: as §1
Five cell lines (BCX-011, BCX-010, Sum-159, BCX-010 transfected with control shRNA, and BCX-010 transfected with Zeb1 shRNA) were treated with decitabine (a DNA methyltransferase inhibitor) at 1 μM for 3 days (FIG. 1B). To knockdown Zeb1, BCX-010 cells were transduced with a lentivirus containing Zeb1 shRNA, followed by puromycin selection.
Breast cancer cell lines BCX-010CL, BCX-011CL, and SUM159 cells were treated with decitabine, azacytidine, panobinostat, vorinostat, tazemetostat at […] respectively for 3 days, followed by immunoblotting for E-cad and TROP2 with β-actin as control (FIG. 1D).
The treated cells were lysed. The cell lysate samples were loaded onto SDS-PAGE gel for the western blot. Antibodies ab-214488 and cst-3195 were used to detect TROP2 and E-cadherin respectively. β-actin was used as loading control (FIG. 1C).

[4] = target: T1, TROP2 (Trophoblast cell surface antigen 2) (human, UniProt P09758 27-323); assay: immunofluorescence microscopy, SG-Alexa-488 at 2 ug/ml on BCX cells overexpressing TROP2; signal similar to that on MDA-MB-468 cells with high endogenous TROP2
T1 construct: whole, on cells; also called TACSTD2; tumor-associated calcium signal transducer 2
T1 sequence (looked up): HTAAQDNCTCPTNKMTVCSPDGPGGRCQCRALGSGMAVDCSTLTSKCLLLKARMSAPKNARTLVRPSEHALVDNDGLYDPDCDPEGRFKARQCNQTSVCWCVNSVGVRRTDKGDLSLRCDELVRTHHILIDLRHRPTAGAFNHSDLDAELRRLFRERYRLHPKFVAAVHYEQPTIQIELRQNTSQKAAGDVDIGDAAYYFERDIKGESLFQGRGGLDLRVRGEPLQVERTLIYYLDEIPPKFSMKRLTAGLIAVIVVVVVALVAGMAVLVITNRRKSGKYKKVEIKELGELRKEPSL

[5] = target: T1, TROP2 (Trophoblast cell surface antigen …); assay: conclusion drawn from the examples' data (immunofluorescence, cell assays)
[6] = tested on: TROP2 overexpressing cells; assay: Immunofluorescence of ADC binding on cell membrane; format: cell-based, human; details: 2 μg/ml, 2 hours, room temperature; FIG. 12A
Procedure: ADC drug SG was labeled with alexa fluorescent dye using Alexa Fluo 488 Conjugation Lightening Kit (Abcam, #ab236553), following the manufactory protocol. Final SG-Alexa-488 concentration was 1 μg/μl. To bind ADC to cells, cells were seeded on cover slices in 6-well plates overnight, followed by blocking with 3% BSA/PBS at room temperature for 1 hour. Then cells were incubated with SG-Alexa-488 at 2 μg/ml at room temperature for 2 hours, followed by PBS wash twice. For internalization assay, SG-Alexa-488 was added into the culture medium in the wells at 2 μg/ml for 10 min, 3 hours, and 24 hours. Cells were fixed with 4% paraformaldehyde at room temperature for 15 min, PBS wash twice. The cover slices were mounted onto slide with DAPI counterstaining. Fluorescence on cell surface and in cytoplasm was monitored using Olympus BX51 fluorescent microscope and imaged using Nuance imaging system.

sacituzumab govitecan
colony formation (BCX-010 cells): inhibited cell colony formation | cell sensitivity to SG (IC50) in TROP2-overexpressing vs control cells [1]: Overexpression of TROP2 sensitizes cells | colony formation (Sum-159 cells): inhibited cell colony formation in Sum-159 cells | apoptosis (Annexin V positive cells) [2]: induced cell apoptosis in BCX-010 and Sum-159 cells

CCc1c(C#N)c(SC(C(N)=O)c2ccccc2)nc(N2CCC(N)CC2)c1C#N (stereo not shown) [GSK-3685032]
DNMT1 protein levels [3]: decreased DNMT1 protein levels | TROP2 expression (DNMT1 specific inhibitor) (TROP2): did not upregulate TROP2 expression

B1: sacituzumab govitecan-Alexa-488 (antibody, V domains shown)
VH: QVQLQQSGSELKKPGASVKVSCKASGYTFTNYGMNWVKQAPGQGLKWMGWINTYTGEPTYTDDFKGRFAFSLDTSVSTAYLQISSLKADDTAVYFCARGGFGSSYWYFDVWGQGSLVTVSS
VL: DIQLTQSPSSLSASVGDRVSITCKASQDVSIAVAWYQQKPGKAPKLLIYSASYRYTGVPDRFSGSGSGTDFTLTISSLQPEDFAVYYCQQHYITPLTFGAGTKVEIK
modifications: conjugated to SN-38 (antibody drug conjugate) and labelled with Alexa Fluor 488; sites not stated
binding result [4]: binds

B2: sacituzumab govitecan (antibody, V domains shown)
VH: QVQLQQSGSELKKPGASVKVSCKASGYTFTNYGMNWVKQAPGQGLKWMGWINTYTGEPTYTDDFKGRFAFSLDTSVSTAYLQISSLKADDTAVYFCARGGFGSSYWYFDVWGQGSLVTVSS
VL: DIQLTQSPSSLSASVGDRVSITCKASQDVSIAVAWYQQKPGKAPKLLIYSASYRYTGVPDRFSGSGSGTDFTLTISSLQPEDFAVYYCQQHYITPLTFGAGTKVEIK
modifications: conjugated to SN-38 (antibody drug conjugate); sites not stated
notes: also called SG; Trodelvy
binding result [5]: binds

B3: SG ADC labeled with Alexa-Fluo-488 (conjugate)
VH: QVQLQQSGSELKKPGASVKVSCKASGYTFTNYGMNWVKQAPGQGLKWMGWINTYTGEPTYTDDFKGRFAFSLDTSVSTAYLQISSLKADDTAVYFCARGGFGSSYWYFDVWGQGSLVTVSS
VL: DIQLTQSPSSLSASVGDRVSITCKASQDVSIAVAWYQQKPGKAPKLLIYSASYRYTGVPDRFSGSGSGTDFTLTISSLQPEDFAVYYCQQHYITPLTFGAGTKVEIK
immunofluorescent signal on cell membrane, TROP2-overexpressing cells [6]: strong immunofluorescent signal on cell membrane | immunofluorescent signal on cell membrane, control cells [6]: negative signal
